The values below are quoted from earlier work in patent US10272077B2, “Piperidinone carboxamide azaindane CGRP receptor antagonists” (Merck Sharp & Dohme Corp., priority 2010, dated 2019).

Ends that are not written are not given here.

The conditions of data set [1]: control group (Petersen et al. 2005).
The conditions of data set [2]: marmoset (Doods et al. 2000).
For data set [3] the following is noted: rat (Escott et al. 1995).
The conditions of data set [4]: rats, prior administration (Williamson et al. 1997).

Turning to `NCCCC[C@H](NC(=O)[C@@H](Cc1cc(Br)c(O)c(Br)c1)NC(=O)N1CCC(N2Cc3ccccc3NC2=O)CC1)C(=O)N1CCN(c2ccncc2)CC1` [BIBN4096BS], the “prevention of headache induced by CGRP infusion” value in data set [1] is “able to prevent headache induced by CGRP infusion”. In addition, under “clinical trials (Olesen et al. 2004)”, the “treatment of acute attacks of migraine” value was “effective in treating acute attacks of migraine”. In data set [2], the “effect on increase in facial blood flow” value is “could be blocked”.
Turning to `O=C(N[C@@H]1CC[C@@H](c2cccc(F)c2F)CN(CC(F)(F)F)C1=O)N1CCC(n2c(=O)[nH]c3ncccc32)CC1` [telcagepant], the antimigraine effectiveness result (phase III clinical trials, orally bioavailable) is listed as “shown antimigraine effectiveness”.
In the case of “CGRP(8-37) (VTHRLAGLLSRSGGVVKNNFVPTNVGSKAF; ends and bridges not checked; UniProt P06881 90-119, looked up, fragment) [a peptide CGRP receptor antagonist]”, the “effect on increased facial blood flow” value in data set [3] is recorded as “inhibited”. In addition, the “effect on increase of middle meningeal artery diameter” value in data set [4] is listed as “blocked”.
